Patent US20060100431A1, “Biologically active compounds” (Amura Therapeutics Limited, priority 2002, published 2006)

How the values were obtained:
Assay type in all cases: biochemical
Wild-type cruzipain = Wild-type cruzipain (Trypanosoma cruzi, UniProt P25779); assay: Trypanosoma cruzi cruzipain peptidase activity assay (Ki); settings: read-out: Ki, inhibitors of cruzain and cruzipains
In short: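 Native cruzipain from T. cruzi Dm28 epimastigotes, 2.5 nM, in 100 mM sodium phosphate pH 6.75 with 1 mM EDTA and 10 mM L-cysteine, 25 °C, DMSO <1%. Rates taken from continuous fluorogenic substrate read; Ki by regression assuming reversible pure-competitive inhibition.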

human cathepsin L = target: T1, human cathepsin L (Homo sapiens, UniProt P07711); assay: Cathepsin L peptidase activity assay (Ki); settings: read-out: Ki, inhibitors of cathepsin L
T1 construct: purchased CN Biosciences
Description: Unless otherwise stated, all general chemicals and biochemicals were purchased from either the Sigma Chemical Company, Poole, Dorset, U.K or from Fisher Scientific UK, Loughborough, Leicestershire, U.K. Absorbance assays were carried out in flat-bottomed 96-well plates (Spectra; Greiner Bio-One Ltd., Stonehouse, Gloucestershire, U.K.) using a SpectraMax PLUS384 plate reader (Molecular Devices, Crawley, U.K.). Fluorescence high throughput assays were carried out in either 384-well microtitre plates (Corning Costar 3705 plates, Fisher Scientific) or 96-well ‘U’ bottomed Microfluor W1 microtitre plates (Thermo Labsystems, Ashford, Middlesex, U.K.). Fluorescence assays were monitored using a SpectraMax Gemini fluorescence plate reader (Molecular Devices). For substrates employing either a 7-amino-4-methylcoumarin (AMC) or a 7-amino-4-trifluoromethylcoumarin (AFC) fluorophore, assays were monitored at an excitation wavelength of 365 nm and an emission wavelength of 450 nm and the fluorescence plate reader calibrated with AMC. For substrates employing a 3-amino-benzoyl (Abz) fluorophore, assays were monitored at an excitation wavelength of 310 nm and an emission wavelength of 445 nm; the fluorescence plate reader calibrated with 3-amino-benzamide (Fluka). Unless otherwise indicated, all the peptidase substrates were purchased from Bachem UK, St Helens, Merseyside, UK. Substrates utilizing fluorescence resonance energy transfer methodology (i.e. FRET-based substrates) were synthesized at Incenta Limited using published methods (Atherton & Sheppard, Solid Phase Peptide Synthesis, IRL Press, Oxford, U.K, 1989) and employed Abz (2-aminobenzoyl) as the fluorescence donor and 3-nitro-tyrosine [Tyr(NO2)] as the fluorescence quencher (Meldal, M. and Breddam, K., Anal. Biochem, 195, 141-147, 1991). Hydroxyethylpiperazine ethanesulfonate (HEPES), tris-hydroxylmethyl aminomethane (tris) base, bis-tris-propane and all the biological detergents (e.g. CHAPS, zwittergents, etc.) were purchased from CN Biosciences UK, Beeston, Nottinghamshire, U.K. Glycerol was purchased from Amersham Pharmacia Biotech, Little Chalfont, Buckinghamshire, U.K. Stock solutions of substrate or inhibitor were made up to 10 mM in 100% dimethylsulfoxide (DMSO) (Rathburns, Glasgow, U.K.) and diluted as appropriately required. In all cases the DMSO concentration in the assays was maintained at less than 1% (vol./vol.).
Assay protocols were based on literature precedent (Table 4; Barrett, A. J., Rawlings, N. D. and Woessner, J. F., 1998, Handbook of Proteolytic Enzymes, Academic Press, London and references therein) and modified as required to suit local assay protocols. Enzyme was added as required to initiate the reaction and the activity, as judged by the change in fluorescence upon conversion of substrate to product, was monitored over time. All assays were carried out at 25±1° C.
Bovine cathepsin S, human cathepsin L, human cathepsin H and human cathepsin B were obtained from CN Biosciences. Recombinant human cathepsin S, human cathepsin K and human cathepsin X were obtained from Dr. Boris Turk (Josef Stefan Institute, Ljubljana, Slovenia). Unless otherwise stated, all peptidase activity assays were carried out in 10 mM bis-tris-propane (BTP), pH 6.5 containing 1 mM EDTA, 5 mM 2-mercaptoethanol and 1 mM CaCl2. Human cathepsin H activity assays were carried out in 10 mM BTP pH 6.5, 142 mM NaCl2, 1 mM CaCl2, 1 mM EDTA, 1 mM DTT, 0.035 mM Zwittergent 3-16. Human cathepsin K assays were carried out in 100 mM sodium acetate; pH 5.5 containing 20 mM L-cysteine and 1 mM EDTA (Bossard, M. J., et. al., J. Biol. Chem., 21, 12517-12524, 1996). Human cathepsin X assays were carried out in 100 mM sodium acetate; pH 5.5 containing 20 mM L-cysteine; 0.05% (w/v) Brij 35 and 1 mM EDTA (Santamaria, I., et. al., J. Biol. Chem., 273, 16816-16823, 1998; Klemencic, J, et al., Eur. J. Biochem., 267, 5404-5412, 2000). […]

CPB2.8ΔCTE = target: T2, CPB2.8ΔCTE (Leishmania mexicana, UniProt P36400); assay: Leishmania mexicana cysteine protease B (CPB) peptidase activity assay (Ki); settings: Ki, inhibitors of Leismania mexicana CPB protease
T2 construct: Wild-type recombinant CPB without the C-terminal extention (i.e. CPB2.8ΔCTE); Dr. Jeremy Mottram (Wellcome Centre for Molecular Parasitology, University of Glasgow)
In short: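 Recombinant CPB2.8ΔCTE (0.25 nM) was assayed in 100 mM sodium acetate pH 5.5 with 1 mM EDTA, 200 mM NaCl and 10 mM DTT at 25 °C, DMSO <1%, enzyme added to start. Rates were taken from continuous fluorescence slopes; apparent Ki was fitted assuming reversible, pure-competitive inhibition.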

T2 sequence (P36400 126-343, stated change not applied): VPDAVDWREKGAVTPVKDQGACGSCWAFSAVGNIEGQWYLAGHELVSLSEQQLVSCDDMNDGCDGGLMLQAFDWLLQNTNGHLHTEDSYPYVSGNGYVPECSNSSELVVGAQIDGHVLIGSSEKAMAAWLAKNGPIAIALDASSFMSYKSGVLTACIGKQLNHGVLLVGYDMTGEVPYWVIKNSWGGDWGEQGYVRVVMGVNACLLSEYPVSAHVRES
T1 sequence (P07711 114-333): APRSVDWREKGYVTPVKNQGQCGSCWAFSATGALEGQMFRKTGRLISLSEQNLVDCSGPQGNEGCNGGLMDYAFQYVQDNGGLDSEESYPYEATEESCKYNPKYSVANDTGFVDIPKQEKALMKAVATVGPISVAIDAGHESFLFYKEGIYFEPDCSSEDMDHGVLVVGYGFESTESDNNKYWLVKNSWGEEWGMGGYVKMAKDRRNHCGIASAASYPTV
Sequence of Wild-type cruzipain (P25779 whole entry): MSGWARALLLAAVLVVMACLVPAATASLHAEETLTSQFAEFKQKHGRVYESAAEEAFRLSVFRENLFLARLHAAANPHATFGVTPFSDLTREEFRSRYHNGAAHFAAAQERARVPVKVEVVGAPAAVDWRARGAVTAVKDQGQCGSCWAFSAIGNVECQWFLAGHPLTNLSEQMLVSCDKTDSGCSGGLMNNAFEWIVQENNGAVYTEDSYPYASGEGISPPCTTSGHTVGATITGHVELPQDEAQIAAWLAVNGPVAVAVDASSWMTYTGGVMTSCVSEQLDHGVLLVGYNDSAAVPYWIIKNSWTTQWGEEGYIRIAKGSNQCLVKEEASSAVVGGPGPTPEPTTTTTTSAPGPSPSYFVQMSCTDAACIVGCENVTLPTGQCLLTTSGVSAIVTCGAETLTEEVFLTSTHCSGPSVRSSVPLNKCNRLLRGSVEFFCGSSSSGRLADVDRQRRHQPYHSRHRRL

## CC(C)C[C@H](NC(=O)c1ccc(N(C)C)cc1)C(=O)N1CC[C@@H]2[C@H]1C(=O)CN2C(=O)c1cccc(C(F)(F)F)c1 [Example 68, (3aR,6aS)-4-Dimethylamino-N-{(1S)-3-methyl-1-[6-oxo-4-(3-trifluoromethyl-benzoyl)-hexahydro-pyrrolo[3,2-b]pyrrole-1-carbonyl]-butyl}-benzamide]
Wild-type cruzipain
  Ki: < 5 µM
Human cathepsin L
  Ki: < 5 µM
CPB2.8ΔCTE
  Ki: < 5 µM

## CC(C)C[C@H](NC(=O)c1cccc(CN)c1)C(=O)N1CC[C@@H]2[C@H]1C(=O)CN2C(=O)[C@@H](N)CC(C)C [Example 246, (3aR,6aS)-3-Aminomethyl-N-{(1S)-1-[4-((2S)-2-amino-4-methyl-pentanoyl)-6-oxo-hexahydro-pyrrolo[3,2-b]pyrrole-1-carbonyl)-3-methyl-butyl}-benzamide]
Wild-type cruzipain
  Ki: < 5 µM
Human cathepsin L
  Ki: < 5 µM
CPB2.8ΔCTE
  Ki: < 5 µM

## CC(=O)N1CCC[C@H]1C(=O)N1CC(=O)[C@@H]2[C@H]1CCN2C(=O)[C@H](CC(C)C)NC(=O)c1ccc(N(C)C)cc1 [Example 216, (3aR,6aS)-N-{(1S)-1-[4-((2S)-1-Acetyl-pyrrolidine-2-carbonyl)-6-oxo-hexahydro-pyrrolo[3,2-b]pyrrole-1-carbonyl]-3-methyl-butyl}-4-dimethylamino-benzamide]
Wild-type cruzipain
  Ki: < 5 µM
Human cathepsin L
  Ki: < 5 µM
CPB2.8ΔCTE
  Ki: < 5 µM

## CC(C)C[C@H](NC(=O)c1ccc(N(C)C)cc1)C(=O)N1CC[C@@H]2[C@H]1C(=O)CN2C(=O)c1cccc(F)c1 [Example 63, (3aR,6aS)-4-Dimethylamino-N-{(1S)-1-[4-(3-fluoro-benzoyl)-6-oxo-hexahydro-pyrrolo[3,2-b]pyrrole-1-carbonyl]-3-methyl-butyl}-benzamide]
Wild-type cruzipain
  Ki: < 5 µM
Human cathepsin L
  Ki: < 5 µM
CPB2.8ΔCTE
  Ki: < 5 µM

## CC(C)C[C@H](NC(=O)c1ccc([N+](C)(C)[O-])cc1)C(=O)N1CC[C@@H]2[C@H]1C(=O)CN2C(=O)c1ccccc1 [Example 117, (3aR,6aS)-N-[(1S)-1-(4-Benzoyl-6-oxo-hexahydro-pyrrolo[3,2-b]pyrrole-1-carbonyl)-3-methyl-butyl]-4-(N-oxy-dimethylamino)-benzamide]
Wild-type cruzipain
  Ki: < 5 µM
Human cathepsin L
  Ki: < 5 µM
CPB2.8ΔCTE
  Ki: < 5 µM

## CC(C)C[C@H](NC(=O)c1cccc(CN)c1)C(=O)N1CC[C@@H]2[C@H]1C(=O)CN2C(=O)Cc1ccc(F)cc1 [Example 180, (3aR,6aS)-3-Aminomethyl-N-((1S)-1-{4-[2-(4-fluoro-phenyl)-acetyl]-6-oxo-hexahydro-pyrrolo[3,2-b]pyrrole-1-carbonyl}-3-methyl-butyl)-benzamide]
Wild-type cruzipain
  Ki: < 5 µM
Human cathepsin L
  Ki: < 5 µM
CPB2.8ΔCTE
  Ki: < 5 µM

## CC(C)C[C@H](NC(=O)c1cccc(CN)c1)C(=O)N1CC[C@@H]2[C@H]1C(=O)CN2C(=O)Cc1ccccc1 [Example 118, (3aR,6aS)-3-Aminomethyl-N-[(1S)-3-methyl-1-(6-oxo-4-phenylacetyl-hexahydro-pyrrolo[3,2-b]pyrrole-1-carbonyl)-butyl]-benzamide]
Wild-type cruzipain
  Ki: < 5 µM
Human cathepsin L
  Ki: < 5 µM
CPB2.8ΔCTE
  Ki: < 5 µM

## CC(C)C[C@H](NC(=O)c1cccc(CN)c1)C(=O)N1CC[C@@H]2[C@H]1C(=O)CN2C(=O)[C@H](N)c1ccccc1 [Example 181, (3aR,6aS)-3-Aminomethyl-N-{(1S)-1-[4-((2R)-2-amino-2-phenyl-acetyl)-6-oxo-hexahydro-pyrrolo[3,2-b]pyrrole-1-carbonyl]-3-methyl-butyl}-benzamide]
Human cathepsin L
  Ki: < 5 µM
CPB2.8ΔCTE
  Ki: < 5 µM

## Cc1cc(C)cc(C(=O)N2CC(=O)[C@@H]3[C@H]2CCN3C(=O)[C@H](CC(C)C)NC(=O)c2ccc(N(C)C)cc2)c1 [Example 111, (3aR,6aS)-4-Dimethylamino-N-{(1S)-1-[4-(3,5-dimethyl-benzoyl)-6-oxo-hexahydro-pyrrolo[3,2-b]pyrrole-1-carbonyl]-3-methyl-butyl}-benzamide]
Wild-type cruzipain
  Ki: < 5 µM
Human cathepsin L
  Ki: < 5 µM
CPB2.8ΔCTE
  Ki: < 5 µM

## CC(C)C[C@H](NC(=O)c1cccc(CN)c1)C(=O)N1CC[C@@H]2[C@H]1C(=O)CN2C(=O)Nc1ccccc1 [Example 175, (3aS,6aR)-4-[(2S)-2-(3-Aminomethyl-benzoylamino)-4-methyl-pentanoyl]-3-oxo-hexahydro-pyrrolo[3,2-b]pyrrole-1-carboxylic acid phenylamide]
Wild-type cruzipain
  Ki: < 5 µM
Human cathepsin L
  Ki: < 5 µM
CPB2.8ΔCTE
  Ki: < 5 µM

## CC(C)C[C@H](NC(=O)c1cccc(CN)c1)C(=O)N1CC[C@@H]2[C@H]1C(=O)CN2C(=O)Cc1ccccc1F [Example 178, (3aR,6aS)-3-Aminomethyl-N-((1S)-1-{4-[2-(2-fluoro-phenyl)-acetyl]-6-oxo-hexahydro-pyrrolo[3,2-b]pyrrole-1-carbonyl}-3-methyl-butyl)-benzamide]
Human cathepsin L
  Ki: < 5 µM
CPB2.8ΔCTE
  Ki: < 5 µM

## CC[C@H](NC(C)=O)C(=O)N1CC(=O)[C@@H]2[C@H]1CCN2C(=O)[C@H](CC(C)C)NC(=O)c1ccc(N(C)C)cc1 [Example 204, (3aR,6aS)-N-{(1S)-1-[4-((2S)-2-Acetylamino-butyryl)-6-oxo-hexahydro-pyrrolo[3,2-b]pyrrole-1-carbonyl]-3-methyl-butyl}-4-dimethylamino-benzamide]
Wild-type cruzipain
  Ki: < 5 µM
Human cathepsin L
  Ki: < 5 µM
CPB2.8ΔCTE
  Ki: < 5 µM

## CC(=O)N[C@@H](CC(C)C)C(=O)N1CC(=O)[C@@H]2[C@H]1CCN2C(=O)[C@H](CC1CCCCC1)NC(=O)c1ccco1 [Example 295, (3aR,6aS)-Furan-2-carboxylic acid {(1S)-2-[4-((2S)-2-acetylamino-4-methyl-pentanoyl)-6-oxo-hexahydro-pyrrolo[3,2-b]pyrrole-1-yl]-1-cyclohexylmethyl-2-oxo-ethyl}-amide]
Wild-type cruzipain
  Ki: < 5 µM
Human cathepsin L
  Ki: < 5 µM
CPB2.8ΔCTE
  Ki: < 5 µM
